The values below are quoted from earlier work in PubChem BioAssay AID1259409 (Chemical Carcinogenesis Research Information System (CCRIS), 2018).

Several values for one entry are separate records, joined by “and”; a condition that tells them apart may be missing. Equal values may be shown once.

In the series the test system is rodent chemically induced tumor inhibition, incidence and multiplicity. The series can be described thus: CCRIS tumor inhibitor studies. The note with it: Promoter: NONE USED.

`CCOc1ccc2c(c1)C(C)=CC(C)(C)N2`: the “tumour outcome (control, treated, inhibition, significance)” value was 1/20 (5%), 4/18 (22%), -340%, not calculated (Carcinogen: 1,2-DIMETHYLHYDRAZINE, 540-73-8, Dose [Inhibitor]: 0, 0.8% IN DIET BEGINNING 1 WK POST LAST CARCINOGEN DOSE AND CONTINUING FOR 36 WK (STUDY DURATION: 40 WK), Route [Inhibitor]: ORAL, Species: RAT, Strain/Sex: F344/MALE, Target Tissue: Type of Lesion: COLON: ADENOMA, Dose [Carcinogen]: 20 MG/KG 1/WK FOR 4 WK); 6/20 (30%), 7/18 (39%), -30%, not calculated (Carcinogen: 1,2-DIMETHYLHYDRAZINE, 540-73-8, Dose [Inhibitor]: 0, 0.8% IN DIET BEGINNING 1 WK POST LAST CARCINOGEN DOSE AND CONTINUING FOR 36 WK (STUDY DURATION: 40 WK), Route [Inhibitor]: ORAL, Species: RAT, Strain/Sex: F344/MALE, Target Tissue: Type of Lesion: COLON: CARCINOMA, Dose [Carcinogen]: 20 MG/KG 1/WK FOR 4 WK); 27/34 (79%), 2/17 (12%), 85%, p<0.01 (Carcinogen: 7,12-DIMETHYLBENZ[A]ANTHRACENE, 57-97-6, Dose [Inhibitor]: 200 MG IN 1 ML OLIVE OIL ONCE (STUDY DURATION: 18 WK), Route [Inhibitor]: GAVAGE, Species: RAT, Strain/Sex: SPRAGUE-DAWLEY/FEMALE, Target Tissue: Type of Lesion: MAMMARY GLAND: TUMOR, Dose [Carcinogen]: 12 MG IN 1 ML OLIVE OIL ADMINISTERED 1 HR AFTER INHIBITOR); 21/25 (84%), 7/24 (29%), 65%, p<0.005 and 22/25 (88%), 4/24 (17%), 81%, p<0.005 (Carcinogen: CIPROFIBRATE, 52214-84-3, Dose [Inhibitor]: 0.5% IN DIET FOR 60 WK (STUDY DURATION: 60 WK), Route [Inhibitor]: ORAL, Species: RAT, Strain/Sex: F344/MALE, Target Tissue: Type of Lesion: LIVER: TUMOR, Dose [Carcinogen]: 10 MG/KG BODY WEIGHT IN DIET SIMULTANEOUSLY WITH INHIBITOR FOR 60 WK); 1/20 (5%), 19/20 (95%), -1800%, p<0.001 (Carcinogen: N-BIS(2-HYDROXYPROPYL)NITROSAMINE, 53609-64-6, Dose [Inhibitor]: 0, 0.8% IN DIET FOR 30 WK BEGINNING POST CARCINOGEN TREATMENT (STUDY DURATION: 32 WK0, Route [Inhibitor]: ORAL, Species: RAT, Strain/Sex: F344/MALE, Target Tissue: Type of Lesion: THYROID: ADENOMA, Dose [Carcinogen]: 0.1% IN DRINKING WATER FOR 2 WK); 5%, 5%, 0%, not significant (Carcinogen: N-BIS(2-HYDROXYPROPYL)NITROSAMINE, 53609-64-6, Dose [Inhibitor]: 0, 0.8% IN DIET FOR 30 WK BEGINNING POST CARCINOGEN TREATMENT (STUDY DURATION: 32 WK), Route [Inhibitor]: ORAL, Species: RAT, Strain/Sex: F344/MALE, Target Tissue: Type of Lesion: BLADDER: ADENOMA, Dose [Carcinogen]: 0.1% IN DRINKING WATER FOR 2 WK). The “tumour outcome (control, treated, inhibition, significance)” value is recorded as 10%, 30%, -200%, not calculated (Carcinogen: N-BIS(2-HYDROXYPROPYL)NITROSAMINE, 53609-64-6, Dose [Inhibitor]: 0, 0.8% IN DIET FOR 30 WK BEGINNING POST CARCINOGEN TREATMENT (STUDY DURATION: 32 WK), Route [Inhibitor]: ORAL, Species: RAT, Strain/Sex: F344/MALE, Target Tissue: Type of Lesion: KIDNEY: TUMOR, Dose [Carcinogen]: 0.1% IN DRINKING WATER FOR 2 WK); 100%, 95%, 5%, not calculated (Carcinogen: N-BIS(2-HYDROXYPROPYL)NITROSAMINE, 53609-64-6, Dose [Inhibitor]: 0, 0.8% IN DIET FOR 30 WK BEGINNING POST CARCINOGEN TREATMENT (STUDY DURATION: 32 WK), Route [Inhibitor]: ORAL, Species: RAT, Strain/Sex: F344/MALE, Target Tissue: Type of Lesion: LUNG: ADENOMA, Dose [Carcinogen]: 0.1% IN DRINKING WATER FOR 2 WK); 45%, 15%, 67%, p<0.05 (Carcinogen: N-BIS(2-HYDROXYPROPYL)NITROSAMINE, 53609-64-6, Dose [Inhibitor]: 0, 0.8% IN DIET FOR 30 WK BEGINNING POST CARCINOGEN TREATMENT (STUDY DURATION: 32 WK), Route [Inhibitor]: ORAL, Species: RAT, Strain/Sex: F344/MALE, Target Tissue: Type of Lesion: LUNG: CARCINOMA, Dose [Carcinogen]: 0.1% IN DRINKING WATER FOR 2 WK); 5%, 95%, -1800%, p<0.001 (Carcinogen: N-BIS(2-HYDROXYPROPYL)NITROSAMINE, 53609-64-6, Dose [Inhibitor]: 0, 0.8% IN DIET FOR 30 WK BEGINNING POST CARCINOGEN TREATMENT (STUDY DURATION: 32 WK), Route [Inhibitor]: ORAL, Species: RAT, Strain/Sex: F344/MALE, Target Tissue: Type of Lesion: THYROID: ADENOMA, Dose [Carcinogen]: 0.1% IN DRINKING WATER FOR 2 WK); 20%, 50%, -150%, not calculated (Carcinogen: N-BIS(2-HYDROXYPROPYL)NITROSAMINE, 53609-64-6, Dose [Inhibitor]: 0, 0.8% IN DIET FOR 30 WK BEGINNING POST CARCINOGEN TREATMENT (STUDY DURATION: 32 WK), Route [Inhibitor]: ORAL, Species: RAT, Strain/Sex: F344/MALE, Target Tissue: Type of Lesion: THYROID: CARCINOMA, Dose [Carcinogen]: 0.1% IN DRINKING WATER FOR 2 WK); 5/23 (22%), 17/27 (63%), -186%, p<0.001 (Carcinogen: N-ETHYL-N-HYDROXYETHYLNITROSAMINE, 13147-25-6, Dose [Inhibitor]: 0.8% IN DIET BEGINNING 1 WK AFTER LAST CARCINOGEN TREATMENT AND CONTINUING THROUGH DURATION OF STUDY (STUDY DURATION: 32, Route [Inhibitor]: ORAL, Species: RAT, Strain/Sex: F344/MALE, Target Tissue: Type of Lesion: KIDNEY: ADENOMA, Dose [Carcinogen]: 0.1% IN DRINKING WATER FOR 2 WK AT BEGINNING OF STUDY). Also, the “tumour outcome (control, treated, inhibition, significance)” value by setting is: (Carcinogen: N-ETHYL-N-HYDROXYETHYLNITROSAMINE, 13147-25-6, Dose [Inhibitor]: 0.8% IN DIET BEGINNING 1 WK AFTER LAST CARCINOGEN TREATMENT AND CONTINUING THROUGH DURATION OF STUDY (STUDY DURATION: 32, Route [Inhibitor]: ORAL, Species: RAT, Strain/Sex: F344/MALE, Target Tissue: Type of Lesion: LIVER: HEPATOCELLULAR CARCINOMA, Dose [Carcinogen]: 0.1% IN DRINKING WATER FOR 2 WK AT BEGINNING OF STUDY) 11/23 (48%), 3/27 (11%), 77%, p<0.05; (Carcinogen: URETHANE, 51-79-6, Dose [Inhibitor]: 0.75% IN DIET 1/WK FOR 24 HR AFTER OVERNIGHT FAST TREATMENT REPEATED FOR 8 CONSECUTIVE WK BEGINNING 1 D AFTER CARCINOGEN, Route [Inhibitor]: ORAL, Species: MOUSE, Strain/Sex: STRAIN A/MALE, Target Tissue: Type of Lesion: LUNG: TYPE II ALVEOLAR CELL TUMORS, CLARA CELL TUMORS, Dose [Carcinogen]: 500 MG/KG ONCE AT 8 WK OF AGE) 100%, 100%, 0%, not significant; (Dose [Inhibitor]: 0.05% DIET FOR 2 WK STARTING 2 WK PRIOR TO START OF CARCINOGEN TREATMENT (STUDY DURATION: 48 WK), Route [Inhibitor]: ORAL, Species: RAT, Strain/Sex: F344/MALE, Target Tissue: Type of Lesion: LIVER: CELL TUMOR, Dose [Carcinogen]: 4 PPM IN DIET DAILY FOR 6 WK) 3/11 (27%), 1/15 (7%), 74%, not calculated; (Dose [Inhibitor]: 0.05% IN DIET FOR 2 WK STARTING 2 WK PRIOR TO INITIATION OF CARCINOGEN TREATMENT (STUDY DURATION: 48 WK), Route [Inhibitor]: ORAL, Species: RAT, Strain/Sex: F344/MALE, Target Tissue: Type of Lesion: LIVER: LIVER CELL TUMOR, Dose [Carcinogen]: 4 PPM IN DIET FOR 6 WK FOLLOWED BY 40 WK ON CONTROL DIET) 3/11 (27%), 1/12 (8%), 70%, not calculated; (Dose [Inhibitor]: 0.5% DIET FOR 2 WK STARTING 2 WK PRIOR TO START OF CARCINOGEN TREATMENT (STUDY DURATION: 48 WK), Route [Inhibitor]: ORAL, Species: RAT, Strain/Sex: F344/MALE, Target Tissue: Type of Lesion: LIVER: CELL TUMOR, Dose [Carcinogen]: 4 PPM IN DIET DAILY FOR 6 WK) 3/11 (27%), 0/15 (0%), 100%, not calculated; (Dose [Inhibitor]: 0.5% DIET FOR 2 WK STARTING POST CARCINOGEN TREATMENT AND FOLLOWED BY 40 WK ON CONTROL DIET (STUDY DURATION: 48 WK), Route [Inhibitor]: ORAL, Species: RAT, Strain/Sex: F344/MALE, Target Tissue: Type of Lesion: LIVER: CELL TUMOR, Dose [Carcinogen]: 4 PPM DIET DAILY FOR 6 WK) 3/11 (27%), 3/15 (20%), 26%, not significant. In addition, the “tumour outcome (control, treated, inhibition, significance)” value is recorded as 3/11 (27%), 0/15 (0%), 100%, not calculated (Dose [Inhibitor]: 0.5% DIET FOR 6 WK ADMINISTERED CONCURRENTLY WITH CARCINOGEN TREATMENT FOLLOWED BY 42 WK ON CONTROL DIET (STUDY DURATION, Route [Inhibitor]: ORAL, Species: RAT, Strain/Sex: F344/MALE, Target Tissue: Type of Lesion: LIVER: CELL TUMOR, Dose [Carcinogen]: 4 PPM DIET DAILY FOR 6 WK); 3/11 (27%), 0/15 (0%), 100%, not calculated (Dose [Inhibitor]: 0.5% IN DIET FOR 2 WK STARTING 2 WK PRIOR TO INITIATION OF CARCINOGEN (STUDY DURATION: 48 WK), Route [Inhibitor]: ORAL, Species: RAT, Strain/Sex: F344/MALE, Target Tissue: Type of Lesion: LIVER: LIVER CELL TUMOR, Dose [Carcinogen]: 4 PPM IN DIET FOR 6 WK FOLLOWED BY 40 WK ON CONTROL DIET); 3/11 (20%), 0/9 (0%), 100%, not calculated (Dose [Inhibitor]: 0.5% IN DIET FOR 6 WK ADMINISTERED SIMULTANEOUSLY WITH CARCINOGEN FOLLOWED BY 42 WK ON CONTROL DIET (STUDY DURATION: 48, Route [Inhibitor]: ORAL, Species: RAT, Strain/Sex: F344/MALE, Target Tissue: Type of Lesion: LIVER: LIVER CELL TUMOR, Dose [Carcinogen]: 4 PPM IN DIET FOR 6 WK). Besides, for the setting “Carcinogen: N-ETHYL-N-HYDROXYETHYLNITROSAMINE, 13147-25-6, Dose [Inhibitor]: 0.8% IN DIET BEGINNING 1 WK AFTER LAST CARCINOGEN TREATMENT AND CONTINUING THROUGH DURATION OF STUDY (STUDY DURATION: 32, Route [Inhibitor]: ORAL, Species: RAT, Strain/Sex: F344/MALE, Target Tissue: Type of Lesion: KIDNEY: ADENOCARCINOMA, Dose [Carcinogen]: 0.1% IN DRINKING WATER FOR 2 WK AT BEGINNING OF STUDY”, the outcome is recorded as 0/23 (0%), 3/27 (11%), -11%, not significant.
